The conditions of data set [1]: cited from earlier work.
Data set [2] concerns LTB4 production in human neutrophils. The conditions noted are these: depending on cell density, read-out: IC50, inhibition of LTB4 production, human neutrophils; cited from earlier work.
Data set [3] concerns HaCaT cells. The conditions noted are these: cited from earlier work.
Data set [4] deals with HaCaT cells. The experiment in a line: Antiproliferative activity against HaCaT cells (human keratinocyte cell line). In kind it is cell-based. Conditions: 48 h, read-out: AA IC50 (antiproliferative activity).
Data set [5] can be described thus: Deoxyribose degradation as a measure of hydroxyl radical formation. The data set is classed as biochemical. The conditions noted are these: 75 μM test compound; controls < 0.1.
For data set [6] the following is noted: psoriasis therapy; cited from earlier work.

We go through one compound from patent publication US5922891A, “2-substituted 1,8-dihydroxy-9(10H)-anthracenone pharmaceuticals” (priority 1997, dated 1999).

The IC50 is the concentration that inhibits the measured activity by half. `O=C1c2c(O)cccc2Cc2cccc(O)c21` [anthralin]: in data set [1], the “lipid peroxidation in the presence of iron” value is recorded as “enhancement of anthralin-induced lipid peroxidation in the presence of iron”. The IC50 is 7 to 74 µM in data set [2] and 0.5 to 0.7 µM in the data set on HaCaT cells [4]. Besides, the “sensitivity of HaCaT cells to antiproliferative action” value in the data set on HaCaT cells [3] is reported as “extremely sensitive target for the antiproliferative action of anthralin”. Besides, in data set [5], the “DD (deoxyribose degradation, malondialdehyde released)” value is recorded as 2.89 ± 0.14 μmol of MDA/mmol. In addition, the “side effects of anthralin therapy” value in data set [6] was “increased inflammation and irritation of non-effected skin surrounding treated lesions”.
